Results from ChEMBL document CHEMBL1141281, “Targeted natural product isolation guided by HPLC-SPE-NMR: constituents of Hubertia species” (2007).
Values after ≈ are worked out from the molar mass of the structure shown. Active and inactive are the calls of the source. The calls are words filed in the database; no cut-off is given here.

Tests used:
Staphylococcus aureus [1] = experiment: Antimicrobial activity against Staphylococcus aureus ATCC 6538 after 24 hrs by MTT assay; format: functional; conditions: ATCC 6538, 24 h
Escherichia coli [2] = experiment: Antimicrobial activity against Escherichia coli ATCC 11229 after 24 hrs by MTT assay; format: functional; conditions: ATCC 11229, 24 h
Bacillus subtilis [3] = experiment: Antimicrobial activity against Bacillus subtilis ATCC 6633 after 24 hrs by MTT assay; format: functional; conditions: ATCC 6633, 24 h
[4] = Inhibition of Cu2+ induced human LDL oxidation; format: functional
Bacillus subtilis [5] = experiment: Antimicrobial activity against Bacillus subtilis ATCC 6633 at 500 ug/mL after 24 hrs by MTT assay; format: functional, organism-based
Escherichia coli [6] = experiment: Antimicrobial activity against Escherichia coli ATCC 11229 at 500 ug/mL after 24 hrs by MTT assay; format: functional, organism-based
Staphylococcus aureus [7] = experiment: Antimicrobial activity against Staphylococcus aureus ATCC 6538 at 500 ug/mL after 24 hrs by MTT assay; format: functional, organism-based

Compound `CN[C@@H]1[C@H](O[C@H]2[C@H](O[C@H]3[C@H](O)[C@@H](O)[C@H](N=C(N)N)[C@@H](O)[C@@H]3N=C(N)N)O[C@@H](C)[C@]2(O)C=O)O[C@@H](CO)[C@H](O)[C@H]1O` (stereo in doubt) [STREPTOMYCIN] has an MIC (Staphylococcus aureus [1]) of 12.5 µg/mL (≈ 21.5 µM), an MIC (Escherichia coli [2]) of 12.5 µg/mL (≈ 21.5 µM) and an MIC (Bacillus subtilis [3]) of 12.5 µg/mL (≈ 21.5 µM).

With `O=C(C=Cc1ccc(O)c(O)c1)O[C@@H]1C[C@](O)(C(=O)O)C[C@@H](O)[C@H]1O` the Activity [4] was “Dose-dependent effect”.

With `O=C(/C=C/c1ccc(O)c(O)c1)O[C@@H]1C[C@](O)(C(=O)O)C[C@@H](OC(=O)/C=C/c2ccc(O)c(O)c2)[C@H]1O` the Activity [4] was “Dose-dependent effect”.

With `O=C1C=CC(O)(CC(=O)O[C@H]2[C@H](OC(=O)/C=C/c3ccc(O)c(O)c3)C[C@](O)(C(=O)O)C[C@H]2OC(=O)/C=C/c2ccc(O)c(O)c2)C=C1` the Activity (Bacillus subtilis [5]) was “inactive”, the Activity (Escherichia coli [6]) was “inactive” and the Activity (Staphylococcus aureus [7]) was “inactive”.
